From patent US20150038435A1, “N-TERMINALLY MODIFIED OLIGOPEPTIDES AND USES THEREOF” (Novo Nordisk A/S, priority 2012, published 2015)
Starred links: 1 amine or outer side, 2 acyl side, 3 side chain; linkers in the order of their positions; H or OH if unused. Non-standard residues stand in square brackets, D forms with d. *: point of attachment. γGlu = O=C(O)[C@H](CCC(=O)[*:2])N[*:1]; Lauroyl = CCCCCCCCCCCC(=O)*; Decanoyl = CCCCCCCCCC(=O)*

Assays:
Chymotrypsin = experiment: Inhibition of enzymatic degradation of a model GLP-1 (FRET substrate) by chymotrypsin; assay type: biochemical; conditions: for EC50: read-out: EC50 Chymotrypsin (0.001 mg/ml), 0.001 mg/ml chymotrypsin, 37° C., ± standard error if at least 3 measurements
From the text: (§1) The use of Förster resonance energy transfer (FRET), also known as fluorescence resonance energy transfer, substrates to monitor activity of proteolytic enzymes is known in the field (for example Anjuere, F. et al. (1993). Biochem J 291 (Pt 3), 869-73).
(§2) Model GLP-1 analogue was designed as FRET substrate by incorporation of 7-Methoxycoumarin-4-acetic acid (MCA) group as the donor chromophore and dinitrophenol group (DNP) as the acceptor chromophore.
(§3) An assay following the increase in fluorescence as a function of time was established in 96 well format using Varioskan Flash Multimode Meter (Thermo Scientific). Each well contained 70 μl of Dulbecco's phosphate buffer saline (Invitrogen catalogue #14190-094), 10 μl of 100 μM GLP-1 FRET substrate, 10 μl of N-terminally acylated peptide or oligopeptide of the invention in varying concentration and 10 μl of a stock solution of an enzyme (chymotrypsin, trypsin, elastase, etc.). The incubations were performed at 37° C. Fluorescence (320 nm excitation wavelength and 405 nm emission wavelength) was measured immediately after addition of the enzyme to the 96 well plate and also every minute for at least the next 30 minutes. The concentration of the enzyme was optimized to allow determination of slopes for the time course of initial fluorescence increase with and without the N-terminally acylated peptides or oligopeptides of the invention. The slopes were determined by linear regression of the linear part of the fluorescence trace (for example, the first 10 min of the reaction). Each assay was performed in duplicate and average of the two traces was included in the calculations. The relative effect of N-terminally acylated peptide or oligopeptides of the invention on enzymatic degradation of GLP-1 FRET substrate was obtained by comparison of the slopes achieved by the same concentration of the N-terminally acylated peptide or oligopeptides. […] This was done by plotting the slopes achieved with different concentrations of the N-terminally acylated peptide or oligopeptides of the invention as a function of their concentrations and fitting the experimental results using, for example, sigmoidal logistic regression (2 parameters, Sigma Plot v 11). Inhibition constants for the interaction between the N-terminally acylated peptide or oligopeptides of the invention and proteolytic enzymes were also obtained by performing the assay described above with varying concentrations of the inhibitor and substrate and analyzing the results, for example, by double reciprocal transformation as known to the person skilled in the art and described for example in Hubalek, F. et al., J. Med. Chem. 47, 1760-1766 (2004).
(§4) The EC50 was determined for the following compounds. EC50±standard error is reported if the results of at least 3 independent measurements were available.

[1] = Hydrophobicity: retention time during reverse phase HPLC; assay type: physicochemical; conditions: Acquity CSH C18; pH 7.2 buffer/CH3CN gradient; 40° C.
From the text: The retention time (RT) during reverse phase HPLC was taken as a measure of hydrophobicity of an N-terminally modified peptide or oligopeptide of the invention, where the connection is: The longer the RT, the more hydrophobic N-terminally modified peptide or oligopeptide. The following running conditions were applied during HPLC analysis:
Buffer B: 70% (v/v) aq. CH3CN

Trypsin = experiment: Inhibition of enzymatic degradation of a model GLP-1 (FRET substrate) by trypsin; assay type: biochemical; conditions: for EC50: read-out: EC50 Trypsin (0.001 mg/ml), 0.001 mg/ml trypsin, 37° C.
From the text: as §1, §2, §3, §4

[2] = compound 0.1 mM, buffer containing 8% DMSO

Substance	Slope of the initial increase in fluorescence obtained during incubation with 0.001 mg/ml Chymotrypsin (Chymotrypsin; [2])	RT (retention time during reverse phase HPLC as a measure of hydrophobicity) [1] [min]	Slope of the initial increase in fluorescence obtained during incubation with 0.001 mg/ml Trypsin (Trypsin; [2])	EC50 (Chymotrypsin) [µM]	further results
N-dodecanoyl-Val-Pro-Tyr-OH [Example 111]	0.31	7	1.93	–	–
N-dodecanoyl-His-Ala-Pro-Tyr-OH (Lauroyl-HAPY-OH; SMILES CCCCCCCCCCCC(=O)N[C@@H](Cc1c[nH]cn1)C(=O)N[C@@H](C)C(=O)N1CCC[C@H]1C(=O)N[C@@H](Cc1ccc(O)cc1)C(=O)O) [Example 39]	0.27	5.08	1.84	–	–
N-dodecanoyl-His-Ala-Ala-Pro-Tyr-OH [Example 38]	0.02	4.94	1.66	–	–
N-dodecanoyl-Ala-Ala-Pro-Phe-Pro-OH [Example 24]	–	6.88	–	379	–
N-dodecanoyl-Ala-Ala-Asn-Tyr-OH (Lauroyl-AANY-OH; SMILES CCCCCCCCCCCC(=O)N[C@@H](C)C(=O)N[C@@H](C)C(=O)N[C@@H](CC(N)=O)C(=O)N[C@@H](Cc1ccc(O)cc1)C(=O)O) [Example 59]	1.79	7.88	1.72	–	–
N-dodecanoyl-Gln-Ala-Ala-Pro-Tyr-OH [Example 102]	0.14	4.82	1.66	–	–
N-tetradecanoyl-βAla-Ala-Pro-Phe-OH [Example 9]	–	8.73	–	–	Slope of the initial increase in fluorescence obtained during incubation with 0.001 mg/ml Chymotrypsin (Chymotrypsin; compound 1 mM): 0.01; Slope of the initial increase in fluorescence obtained during incubation with 0.001 mg/ml Trypsin (Trypsin; compound 1 mM): 0.21
N-dodecanoyl-Ala-Ala-Lys-Tyr-OH (Lauroyl-AAKY-OH; SMILES CCCCCCCCCCCC(=O)N[C@@H](C)C(=O)N[C@@H](C)C(=O)N[C@@H](CCCCN)C(=O)N[C@@H](Cc1ccc(O)cc1)C(=O)O) [Example 67]	0.94	4.7	1.89	–	–
N-tetradecanoyl-βAla-βAla-Pro-Phe-OH [Example 136]	–	8.73	–	106	EC50 (Trypsin): 13 µM
N-dodecanoyl-Val-Ala-Ala-Pro-Tyr-OH [Example 54]	0.95	7.08	1.95	–	–
N-dodecanoyl-Ala-Ala-Glu-Tyr-OH (Lauroyl-AAEY-OH; SMILES CCCCCCCCCCCC(=O)N[C@@H](C)C(=O)N[C@@H](C)C(=O)N[C@@H](CCC(=O)O)C(=O)N[C@@H](Cc1ccc(O)cc1)C(=O)O) [Example 62]	1.35	4.36	1.66	–	–
N-dodecanoyl-γGlu-Ala-Pro-Tyr-OH (Lauroyl-[γGlu]APY-OH; SMILES CCCCCCCCCCCC(=O)N[C@@H](CCC(=O)N[C@@H](C)C(=O)N1CCC[C@H]1C(=O)N[C@@H](Cc1ccc(O)cc1)C(=O)O)C(=O)O) [Example 98]	1.39	3.79	1.53	–	–
N-dodecanoyl-γGlu-Ala-Ala-Pro-Arg-OH [Example 25]	–	3.66	–	> 500	–
N-dodecanoyl-γGlu-Ala-Ala-Pro-Phe-OH [Example 12]	–	4.04	–	–	Slope of the initial increase in fluorescence obtained during incubation with 0.001 mg/ml Chymotrypsin (Chymotrypsin; compound 1 mM): 0.76; Slope of the initial increase in fluorescence obtained during incubation with 0.001 mg/ml Trypsin (Trypsin; compound 1 mM): 0.30
N-dodecanoyl-Glu-Pro-Tyr-OH [Example 117]	1.82	3.91	1.66	–	–
N-decanoyl-Ala-Ala-Pro-Arg-OH (Decanoyl-AAPR-OH; SMILES CCCCCCCCCC(=O)N[C@@H](C)C(=O)N[C@@H](C)C(=O)N1CCC[C@H]1C(=O)N[C@@H](CCCNC(=N)N)C(=O)O) [Example 20]	–	3.79	–	> 500	–
N-dodecanoyl-Ala-Ala-Ala-Pro-Phe-OH [Example 18]	–	6.59	–	167	–
N-tetradecanoyl-γGlu-βAla-βAla-Pro-Phe-OH [Example 139]	–	4.95	–	> 500	–
N-tetradecanoyl-βAla-βAla-βAla-βAla-Pro-Phe-OH [Example 137]	–	7.7	–	> 500	–
N-dodecanoyl-γGlu-Ala-Pro-Phe-OH (Lauroyl-[γGlu]APF-OH; SMILES CCCCCCCCCCCC(=O)N[C@@H](CCC(=O)N[C@@H](C)C(=O)N1CCC[C@H]1C(=O)N[C@@H](Cc1ccccc1)C(=O)O)C(=O)O) [Example 22]	–	4.09	–	> 500	–
N-dodecanoyl-Ala-Ala-Pro-Tyr-OH [Example 17] (Lauroyl-AAPY-OH; SMILES CCCCCCCCCCCC(=O)N[C@@H](C)C(=O)N[C@@H](C)C(=O)N1CCC[C@H]1C(=O)N[C@@H](Cc1ccc(O)cc1)C(=O)O)	–	5.83	–	–	–
N-dodecanoyl-γGlu-Ala-Pro-Arg-OH (Lauroyl-[γGlu]APR-OH; SMILES CCCCCCCCCCCC(=O)N[C@@H](CCC(=O)N[C@@H](C)C(=O)N1CCC[C@H]1C(=O)N[C@@H](CCCNC(=N)N)C(=O)O)C(=O)O) [Example 21]	–	3.66	–	> 500	–
N-tetradecanoyl-His-Ala-Trp-Pro-Phe-OH [Example 192]	–	–	–	34	EC50 (Trypsin): 303 µM
N-dodecanoyl-βAla-βAla-Pro-Phe-Pro-OH [Example 6]	–	–	–	–	Slope of the initial increase in fluorescence obtained during incubation with 0.001 mg/ml Chymotrypsin (Chymotrypsin; compound 1 mM): 0.24; Slope of the initial increase in fluorescence obtained during incubation with 0.001 mg/ml Trypsin (Trypsin; compound 1 mM): 0.35
N-tetradecanoyl-Trp-Pro-Tyr-OH [Example 153]	–	–	–	38	EC50 (Trypsin): 43 µM
N-tetradecanoyl-Arg-His-Ala-Arg-Pro-Phe-OH [Example 197]	–	–	–	2	EC50 (Trypsin): 16 µM
N-hexadecanoyl-γGlu-Ala-Ala-Pro-Phe-OH [Example 188]	–	–	–	71	EC50 (Trypsin): 67 µM
N-dodecanoyl-Thr-Ala-Ala-Pro-Phe-OH [Example 172]	–	–	–	132	EC50 (Trypsin): 401 µM
